In patent US10098938B2, “Peptides and combination of peptides for use in immunotherapy against various cancers” (immatics biotechnologies GmbH, priority 2015, dated 2018):

Experiments:
CD8+ T cells = assay: In vitro immunogenicity: T-cell priming with aAPCs loaded with peptide/MHC and anti-CD28, pMHC multimer readout; type: cell-based, human; conditions: in vitro immunogenicity of HLA class I peptides; for Wells positive [%]: pMHC multimer readout after T-cell priming; for Wells: CD8+ T cells of healthy donors, three stimulation cycles, multimer staining
Excerpt: In order to obtain information regarding the immunogenicity of the TUMAPs of the present invention, the inventors performed investigations using an in vitro T-cell priming assay based on repeated stimulations of CD8+ T cells with artificial antigen presenting cells (aAPCs) loaded with peptide/MHC complexes and anti-CD28 antibody.
In order to perform in vitro stimulations by artificial antigen presenting cells loaded with peptide-MHC complex (pMHC) and anti-CD28 antibody, the inventors first isolated CD8+ T cells from fresh HLA-A*02 leukapheresis products via positive selection using CD8 microbeads (Miltenyi Biotec, Bergisch-Gladbach, Germany) of healthy donors obtained from the University clinics Mannheim, Germany, after informed consent.
PBMCs and isolated CD8+ lymphocytes were incubated in T-cell medium (TCM) until use consisting of RPMI-Glutamax (Invitrogen, Karlsruhe, Germany) supplemented with 10% heat inactivated human AB serum (PAN-Biotech, Aidenbach, Germany), 100 U/ml Penicillin/100 μg/ml Streptomycin (Cambrex, Cologne, Germany), 1 mM sodium pyruvate (CC Pro, Oberdorla, Germany), 20 μg/ml Gentamycin (Cambrex). 2.5 ng/ml IL7 (PromoCell, Heidelberg, Germany) and 10 U/ml IL-2 (Novartis Pharma, Nürnberg, Germany) were also added to the TCM at this step.
Generation of pMHC/anti-CD28 coated beads, T-cell stimulations and readout was performed in a highly defined in vitro system using four different pMHC molecules per stimulation condition and 8 different pMHC molecules per readout condition.
The purified co-stimulatory mouse IgG2a anti human CD28 Ab 9.3 (Jung et al., 1987) was chemically biotinylated using Sulfo-N-hydroxysuccinimidobiotin as recommended by the manufacturer (Perbio, Bonn, Germany). Beads used were 5.6 μm diameter streptavidin coated polystyrene particles (Bangs Laboratories, Illinois, USA).
pMHC used for positive and negative control stimulations were A*0201/MLA-001 (peptide […] (SEQ ID NO. 303) from modified Melan-A/MART-1) and A*0201/DDX5-001 ([…] from DDX5, SEQ ID NO. 304), respectively.
800.000 beads/200 μl were coated in 96-well plates in the presence of 4×12.5 ng different biotin-pMHC, washed and 600 ng biotin anti-CD28 were added subsequently in a volume of 200 μl. Stimulations were initiated in 96-well plates by co-incubating […] CD8+ T cells with 2×10^5 washed coated beads in 200 μl TCM supplemented with 5 ng/ml IL-12 (PromoCell) for 3 days at 37° C. Half of the medium was then exchanged by fresh TCM supplemented with 80 U/ml IL-2 and incubating was continued for 4 days at 37° C. This stimulation cycle was performed for a total of three times. For the pMHC multimer readout using 8 different pMHC molecules per condition, a two-dimensional combinatorial coding approach was used as previously described (Andersen et al., 2012) with minor modifications encompassing coupling to 5 different fluorochromes. Finally, multimeric analyses were performed by staining the cells with Live/dead near IR dye (Invitrogen, Karlsruhe, Germany), CD8-FITC antibody clone SK1 (BD, Heidelberg, Germany) and fluorescent pMHC multimers. For analysis, a BD LSRII SORP cytometer equipped with appropriate lasers and filters was used. Peptide specific cells were calculated as percentage of total CD8+ cells. Evaluation of multimeric analysis was done using the FlowJo software (Tree Star, Oregon, USA). In vitro priming of specific multimer+ CD8+ lymphocytes was detected by comparing to negative control stimulations.

HLA-A*24 = assay: MHC binding assay, UV-ligand exchange with β2m ELISA, HLA-A*24; design: species or system human; conditions: binding to HLA-A*24 ranged by peptide exchange yield
Excerpt: Candidate peptides for T cell based therapies according to the present invention were further tested for their MHC binding capacity (affinity). The individual peptide-MHC complexes were produced by UV-ligand exchange, where a UV-sensitive peptide is cleaved upon UV-irradiation, and exchanged with the peptide of interest as analyzed. Only peptide candidates that can effectively bind and stabilize the peptide-receptive MHC molecules prevent dissociation of the MHC complexes. To determine the yield of the exchange reaction, an ELISA was performed based on the detection of the light chain (β2m) of stabilized MHC complexes. The assay was performed as generally described in Rodenko et al. (Rodenko et al., 2006).
96 well MAXISorp plates (NUNC) were coated over night with 2 ug/ml streptavidin in PBS at room temperature, washed 4× and blocked for 1 h at 37° C. in 2% BSA containing blocking buffer. Refolded HLA-A*02:01/MLA-001 monomers served as standards, covering the range of 15-500 ng/ml. Peptide-MHC monomers of the UV-exchange reaction were diluted 100 fold in blocking buffer. Samples were incubated for 1 h at 37° C., washed four times, incubated with 2 ug/ml HRP conjugated anti-β2m for 1 h at 37° C., washed again and detected with TMB solution that is stopped with […]. Absorption was measured at 450 nm. Candidate peptides that show a high exchange yield (preferably higher than 50%, most preferred higher than 75%) are generally preferred for a generation and production of antibodies or fragments thereof, and/or T cell receptors or fragments thereof, as they show sufficient avidity to the MHC molecules and prevent dissociation of the MHC complexes.

Row | Peptide exchange (HLA-A*24) | Substance | other results
1 |  | 18 (ILLDLTDNRL; listed as Homo sapiens) [compound 18] | Wells positive [%] (CD8+ T cells): + (<20% = +)
2 |  | 90 (FLQDLEQRL; listed as Homo sapiens) [compound 90] | Wells positive [%] (CD8+ T cells): + (<20% = +)
3 | ++++ (> = 75% = ++++) | 161 (IYLVSIPEL; listed as Homo sapiens) [compound 161] | 
4 | ++++ (> = 75% = ++++) | 168 (KYQDILETI; listed as Homo sapiens) [compound 168] | 
5 | ++++ (> = 75% = ++++) | 271 (LYHDIFSRL; listed as Homo sapiens) [compound 271] | 
6 | ++++ (> = 75% = ++++) | 186 (IFPQFLYQF; listed as Homo sapiens) [compound 186] | 
7 |  | 269 (YFIDSTNLKTHF; listed as Homo sapiens) [compound 269] | Wells positive [%] (CD8+ T cells): + (<20% = +)
8 | ++++ (> = 75% = ++++) | 184 (VFQNFPLLF; listed as Homo sapiens) [compound 184] | 
9 |  | 149 (ILNTHITEL; listed as Homo sapiens) [compound 149] | Wells positive [%] (CD8+ T cells): + (<20% = +)
10 | ++++ (> = 75% = ++++) | 177 (VYPWLGALL; listed as Homo sapiens) [compound 177] | 
11 | ++++ (> = 75% = ++++) | 277 (VYQGHTALL; listed as Homo sapiens) [compound 277] | 
12 | ++++ (> = 75% = ++++) | 179 (MYDSYWRQF; listed as Homo sapiens) [compound 179] | 
13 |  | 293 (FLVDGSWSI; listed as Homo sapiens) [compound 293] | Wells (CD8+ T cells): + (<20% = +)
14 |  | 35 (FLLPFSTVYL; listed as Homo sapiens) [compound 35] | Wells positive [%] (CD8+ T cells): + (<20% = +)
15 |  | 300 (AYVLRLETL; listed as Homo sapiens) [compound 300] | Wells (CD8+ T cells): + (<20% = +)
16 | ++++ (> = 75% = ++++) | 175 (YYEVHKELF; listed as Homo sapiens) [compound 175] | 
17 | ++++ (> = 75% = ++++) | 227 (IFLDYEAGTLSF; listed as Homo sapiens) [compound 227] | 
18 |  | 31 (TITETTVEV; listed as Homo sapiens) [compound 31] | Wells positive [%] (CD8+ T cells): + (<20% = +)
19 | ++++ (> = 75% = ++++) | 216 (QYSSVFKSL; listed as Homo sapiens) [compound 216] | 
20 |  | 196 (LYIDRPLPYL; listed as Homo sapiens) [compound 196] | Wells positive [%] (CD8+ T cells): ++++ (> = 70% = ++++)
21 | + (<20% = +) | 194 (EFGSLHLEFL; listed as Homo sapiens) [compound 194] | 
22 |  | 23 (SLFSDEFKV; listed as Homo sapiens) [compound 23] | Wells positive [%] (CD8+ T cells): ++++ (> = 70% = ++++)
23 |  | 218 (YYKSTSSAF; listed as Homo sapiens) [compound 218] | Wells positive [%] (CD8+ T cells): + (<20% = +)
24 | ++++ (> = 75% = ++++) | 289 (KYPVEWAKF; listed as Homo sapiens) [compound 289] | 
25 |  | 298 (RYLEGTSCI; listed as Homo sapiens) [compound 298] | Wells (CD8+ T cells): + (<20% = +)
26 |  | 296 (TYVDSSHTI; listed as Homo sapiens) [compound 296] | Wells (CD8+ T cells): + (<20% = +)
27 |  | 285 (HYPPVQVLF; listed as Homo sapiens) [compound 285] | Wells positive [%] (CD8+ T cells): + (<20% = +)

Row | Peptide exchange (HLA-A*24) | Substance | other results
28 | ++++ (> = 75% = ++++) | 172 (TYTTVPRVAF; listed as Homo sapiens) [compound 172] | 
29 | ++++ (> = 75% = ++++) | 195 (TYSVSFPMF; listed as Homo sapiens) [compound 195] | 
30 |  | 141 (FLDKVLVAA; listed as Homo sapiens) [compound 141] | Wells positive [%] (CD8+ T cells): + (<20% = +)
31 | ++++ (> = 75% = ++++) | 272 (QYLQDAYSF; listed as Homo sapiens) [compound 272] | 
32 | ++++ (> = 75% = ++++) | 210 (IYTMIYRNL; listed as Homo sapiens) [compound 210] | 
33 |  | 29 (YLLDPSITL; listed as Homo sapiens) [compound 29] | Wells positive [%] (CD8+ T cells): + (<20% = +)
34 | ++++ (> = 75% = ++++) | 280 (RYPDNLKHLYL; listed as Homo sapiens) [compound 280] | 
35 | ++++ (> = 75% = ++++) | 202 (VYWDSAGAAHF; listed as Homo sapiens) [compound 202] | 
36 | ++++ (> = 75% = ++++) | 193 (RFHPTPLLL; listed as Homo sapiens) [compound 193] | 
37 |  | 5 (GIVAHIQEV; listed as Homo sapiens) [compound 5] | Wells positive [%] (CD8+ T cells): + (<20% = +)
38 | ++++ (> = 75% = ++++) | 228 (KYTSWYVAL; listed as Homo sapiens) [compound 228] | 
39 |  | 301 (AYKPGALTF; listed as Homo sapiens) [compound 301] | Wells (CD8+ T cells): + (<20% = +)
40 | ++++ (> = 75% = ++++) | 282 (KFVDSTFYL; listed as Homo sapiens) [compound 282] | 
41 | ++++ (> = 75% = ++++) | 192 (SYALLTYMI; listed as Homo sapiens) [compound 192] | 
42 |  | 292 (GMMTAILGV; listed as Homo sapiens) [compound 292] | Wells (CD8+ T cells): + (<20% = +)
43 | ++++ (> = 75% = ++++) | 274 (AYLHSHALI; listed as Homo sapiens) [compound 274] | 
44 | ++++ (> = 75% = ++++) | 181 (LYLDIINLF; listed as Homo sapiens) [compound 181] | 
45 | ++++ (> = 75% = ++++) | 211 (YYLEVGKTLI; listed as Homo sapiens) [compound 211] | 
46 | ++++ (> = 75% = ++++) | 173 (IYSWILDHF; listed as Homo sapiens) [compound 173] | 
47 | ++++ (> = 75% = ++++) | 267 (KYMVYPQTF; listed as Homo sapiens) [compound 267] | 
48 | ++++ (> = 75% = ++++) | 160 (VYTLDIPVL; listed as Homo sapiens) [compound 160] | 
49 | ++++ (> = 75% = ++++) | 276 (VYGFQWRHF; listed as Homo sapiens) [compound 276] | 
50 | ++++ (> = 75% = ++++) | 187 (TYLRDQHFL; listed as Homo sapiens) [compound 187] | 
51 | ++++ (> = 75% = ++++) | 166 (YYVESGKLF; listed as Homo sapiens) [compound 166] | 
52 | ++++ (> = 75% = ++++) | 217 (FFPPTRQMGLLF; listed as Homo sapiens) [compound 217] | 
53 | ++++ (> = 75% = ++++) | 278 (RYISDQLFTNF; listed as Homo sapiens) [compound 278] | 
